# Where two headings read alike, the source gives them in different places.
# Legend:
# gastric acid secretion = test: gastric acid secretion-inhibiting effect, Shay's method (pylorus-ligated rats); assay type: in vivo, rat (female H-Wistar); conditions: Rattus norvegicus
# Procedure: According to this method female H-Wistar rats weighing 120 to 150 g were starved in latticed cages for 24 hours. The animals received water ad libitum. Then their pylorus was ligated under a slight ether anaesthesia. The test compounds were administered during the surgical intervention. After 4 hours the animals were killed by ether narcosis. After excision of the stomach the volume and pH value of the gastric content were measured. In several cases the hydrochloric acid content was determined by titration.
# [1] = system: gastric ulcers induced in rats by indomethacine; test: inhibition of gastric ulcers induced by indomethacine in rats; assay type: in vivo, rat; conditions: 50 mg/kg oral dose, ulcers induced by 40 mg/kg s.c. indomethacine
# Procedure: An 50 mg/kg oral dose of 1-benzyl-2-(cyanoimino)pyridine inhibits the development of gastric ulcers induced in rats by 40 mg/kg subcutaneous (s.c.) dose of indomethacine (chemically [1-(4-chlorobenzoyl)-2-methyl-5-methoxyindol-3-yl]acetic acid) by 100%.
# rats = conditions: rat, in vivo, po, 120 mg/kg
# [2] = Shay's method, female H-Wistar rats 120 to 150 g, starved 24 hours, pylorus ligated, 4 hours, given during the surgical intervention, read-out: ED50
SMILES,ED50 (gastric acid secretion; [2]),also measured
N#CN=c1ccccn1Cc1ccccc1Cl [1-(2-chlorobenzyl)-2-(cyanoimino)pyridine],1.8 mg/kg,
N#CN=c1ccccn1Cc1cccc(Cl)c1 [1-(3-chlorobenzyl)-2-(cyanoimino)pyridine],9.88 mg/kg,
N#CN=c1ccccn1Cc1ccccc1 [1-benzyl-2-(cyanoimino)pyridine],3.26 mg/kg,inhibition of the development of gastric ulcers [1]: 100%; toxic symptom (rats): No toxic symptom
"O=[N+]([O-])N=c1ccccn1Cc1ccccc1 [1-benzyl-2-(nitroiminopyridine, 1-benzyl-2-(nitroimino)pyridine]",13.6 mg/kg,
N#CN=c1ccccn1Cc1ccccc1F [2-(cyanoimino)-1-(2-fluorobenzyl)pyridine],4.3 mg/kg,
Cc1ccccc1Cn1ccccc1=NC#N [2-(cyanoimino)-1-(2-methylbenzyl)pyridine],11.7 mg/kg,
N#CN=c1ccccn1Cc1cccc(C(F)(F)F)c1 [2-(cyanoimino)-1-(3-trifluoromethylbenzyl)pyridine],12.2 mg/kg,
N#CN=c1ccccn1Cc1ccc(F)cc1 [2-(cyanoimino)-1-(4-fluorobenzyl)pyridine],8.36 mg/kg,
"CN=C(NC#N)NCCSCc1nc[nH]c1C [cimetidine, 1-cyano-2-methyl-3-[2-[[(5-methylimidazol-4-yl)methyl]thio]ethyl]-guanidine, reference compound]",,"ED50 (gastric acid secretion; po, 4 h, read-out: oral ED50): 50 mg/kg"

# — patent US5155123A, “Pyridine derivatives and pharmaceutical compositions containing them” (Richter Gedeon Vegyeszeti Gyar R.T., priority 1989, dated 1992)
